# Patent US12568982B2, “Systems for retaining potency in an infused beverage” (Vertosa Inc., priority 2020, dated 2026)
# What was measured:
# Format in all cases: physicochemical
# [1] = Terpene oxidation with ascorbic acid or EDTA at 40° C.
# From the text: However, nearly all terpenes can be oxidized and some can oxidize faster than others. When terpenes are put into a ready-to-drink beverage, the chemical degradation that can be caused by oxidation needs to be considered. When the oxidation happens, it not only diminishes the designed effect of the product, but it also creates unknown by-products that can be potentially harmful to consume. Oxidation rate of α-pinene and limonene was compared with the addition of ascorbic acid and EDTA.
# [2] = Contact angle of liquids on aluminum can liner (hydrophobicity study); settings: Krüss contact angle machine; flattened liner side of aluminum can
# Description: For hydrophobicity studies, a Krüss contact angle machine was used. An aluminum can was cut in half, and the flattened liner side was used as the testing surface. The contact angle of water, coconut oil, coconut oil+THC at different ratios, and coconut oil+CBD at different ratios on the liner was measured.
# [3] = THC potency loss in glass bottle with child-resistant cap at room temperature
# From the text: The concentration of the antioxidant was studied to ensure the antioxidant will last long enough to protect against THC degradation.
# [4] = Oil-phased versus water-phased antioxidants, THC potency loss at 40° C.; settings: polysorbate emulsion, antioxidant 0.01%, glass bottle with crown cap
# From the text: There are two major types of antioxidants depending on their solubility: oil-phased antioxidants and water-phased antioxidants. The oil-phased antioxidants usually exist within the emulsion droplet and water-phased antioxidants are usually added during beverage production. It was believed that both types of antioxidants should work since they follow similar mechanisms: both function as a sacrificial agent to be oxidized prior to oxidation of the API, or they function as chelating agents where they scavenge the metal ions that catalyze oxidation. […] An emulsion was produced using polysorbate, shown as Emulsion 1 in Table 3. The antioxidant concentration was targeted at 0.01%.
# [5] = Water-soluble antioxidant standard protocol, THC potency decay at 40° C.; settings: for THC potency loss at 10 weeks with combined antioxidants: Polysorbate Emulsion 1
# Description: The study was done with standard protocol: 20 mg THC nanoemulsion was diluted in 12 oz purified water into an amber glass bottle which was finished with a crown cap. The nanoemulsion was produced using polysorbate as an emulsifier with 50 nm droplet size (See Emulsion 1 from Table 3). The pH of the solution was adjusted to 4.0. The water-soluble antioxidants were added into the final solution at 0.005% (50 ppm).
# All the testing above was based on the THC nanoemulsion made with polysorbate as an emulsifier (see Emulsion 1 from Table 3). Two other THC emulsions were produced with polyglycerol and Q-Naturale (see Emulsion 3 and 4 from […]).
# The three oil soluble antioxidants were all targeted at 0.01% (100 ppm).
# [6] = oil-soluble antioxidant at 100 ppm + 10 ppm EDTA
# [7] = oil-soluble antioxidant at 100 ppm + 50 ppm Ascorbic Acid
# [8] = 20 mg THC polysorbate nanoemulsion in 12 oz water, pH 4.0, amber glass, 40° C., antioxidant 0.005% (50 ppm)
molecule,measurement,setting,value
C=CC(=C)CCC=C(C)C [myrcene],2-weeks potency loss at 40° C.,[1]; 10 ppm EDTA,6%
same,2-weeks potency loss at 40° C.,[1]; 50 ppm ascorbic acid,3%
same,2-weeks potency loss at 40° C.,[1]; No antioxidant,38%
CC1=CCC2CC1C2(C)C (stereo not drawn) [α-pinene],2-weeks potency loss at 40° C.,[1]; 10 ppm EDTA,6%
same,2-weeks potency loss at 40° C.,[1]; 50 ppm ascorbic acid,4%
same,2-weeks potency loss at 40° C.,[1]; No antioxidant,57%
O [Water],Contact Angle on Liner,[2],85°
"CCCCCc1cc(O)c2c(c1)OC(C)(C)[C@@H]1CCC(C)=C[C@@H]21 [THC, Tetrahydrocannabinol]",THC potency loss %,"[3]; No antioxidant, 6 months at room temperature, child resistant cap type 1",56%
same,THC potency loss %,"[3]; No antioxidant, 12 months at room temperature, child resistant cap type 1",78%
tocopherol [Vitamin E (tocopherol)],THC loss at 4 weeks,[4],25%
same,THC loss at 10 weeks,[4],46%
same,THC potency loss at 10 weeks with combined antioxidants,[5]; [6],7%
same,THC potency loss at 10 weeks with combined antioxidants,[5]; [7],6%
"O=C(O)CN(CCN(CC(=O)O)CC(=O)O)CC(=O)O [EDTA, Ethylenediaminetetraacetic acid]",THC potency loss %,"[3]; EDTA 5 ppm, 6 months at room temperature",16%
same,THC potency loss %,"[3]; EDTA 5 ppm, 12 months at room temperature",39%
same,THC potency loss %,"[3]; EDTA 10 ppm, 6 months at room temperature",8%
same,THC potency loss %,"[3]; EDTA 10 ppm, 12 months at room temperature",12%
same,THC potency loss %,"[3]; EDTA 20 ppm, 6 months at room temperature",6%
same,THC potency loss %,"[3]; EDTA 20 ppm, 12 months at room temperature",9%
O=C(O)c1cc(O)c(O)c(O)c1 [Gallic acid],THC loss at 4 weeks,[5]; [8],10%
same,THC loss at 10 weeks,[5]; [8],27%
"O=C1O[C@H]([C@@H](O)CO)C(O)=C1O [Ascorbic Acid, ascorbic acid]",THC loss at 10 weeks,[4],17%
same,THC potency loss %,"[3]; Ascorbic acid 20 ppm, 6 months at room temperature",21%
same,THC potency loss %,"[3]; Ascorbic acid 20 ppm, 12 months at room temperature",35%
same,THC potency loss %,"[3]; Ascorbic acid 50 ppm, 6 months at room temperature",7%
same,THC potency loss %,"[3]; Ascorbic acid 50 ppm, 12 months at room temperature",10%
same,THC potency loss %,"[3]; Ascorbic acid 200 ppm, 6 months at room temperature",3%
same,THC potency loss %,"[3]; Ascorbic acid 200 ppm, 12 months at room temperature",7%
C=C(C)[C@H]1CC=C(C)CC1 [limonene],2-weeks potency loss at 40° C.,[1]; 10 ppm EDTA,8%
same,2-weeks potency loss at 40° C.,[1]; 50 ppm ascorbic acid,7%
same,2-weeks potency loss at 40° C.,[1]; No antioxidant,68%
C=CC(C)(O)CCC=C(C)C (stereo not drawn) [linalool],2-weeks potency loss at 40° C.,[1]; 10 ppm EDTA,9%
same,2-weeks potency loss at 40° C.,[1]; 50 ppm ascorbic acid,6%
same,2-weeks potency loss at 40° C.,[1]; No antioxidant,46%
"CCCOC(=O)c1cc(O)c(O)c(O)c1 [Propyl Gallate, propyl gallate]",THC potency loss at 10 weeks with combined antioxidants,[5]; [6],6%
same,THC potency loss at 10 weeks with combined antioxidants,[5]; [7],7%
